{"source": "ChEMBL document CHEMBL1132798", "about": "(Bioorg Med Chem Lett, 2000)", "key": {"Mus musculus [1]": {"species": "Mus musculus", "experiment": "Compound was evaluated for antinociceptive activity in mouse using hot plate assay", "assay_type": "functional"}, "Mus musculus [2]": {"species": "Mus musculus", "experiment": "Compound was evaluated for antinociceptive activity in mouse using paraphenylquinone assay", "assay_type": "functional"}, "Mus musculus [3]": {"species": "Mus musculus", "experiment": "Compound was evaluated for antinociceptive activity in mouse using tail flick assay", "assay_type": "functional"}, "[4]": {"biological_target": "Delta-type opioid receptor (Rattus norvegicus, UniProt P33533)", "sequence (P33533 whole entry)": "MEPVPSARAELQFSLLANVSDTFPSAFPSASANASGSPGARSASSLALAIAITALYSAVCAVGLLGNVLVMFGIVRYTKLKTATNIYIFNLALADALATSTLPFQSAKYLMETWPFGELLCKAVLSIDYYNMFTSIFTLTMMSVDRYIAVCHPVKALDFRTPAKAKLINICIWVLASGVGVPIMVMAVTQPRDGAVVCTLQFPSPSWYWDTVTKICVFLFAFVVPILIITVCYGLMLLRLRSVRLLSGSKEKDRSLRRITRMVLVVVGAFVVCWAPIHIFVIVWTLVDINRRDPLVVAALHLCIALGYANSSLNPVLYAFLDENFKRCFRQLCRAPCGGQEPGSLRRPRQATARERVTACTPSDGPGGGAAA", "experiment": "Compound was evaluated for its ability to displace [3H]p-CI-DPDPE in C6 glioma cells expressing the cloned Opioid receptor delta 1", "assay_type": "cell-based"}, "[5]": {"biological_target": "Kappa-type opioid receptor (Rattus norvegicus, UniProt P34975)", "sequence (P34975 whole entry)": "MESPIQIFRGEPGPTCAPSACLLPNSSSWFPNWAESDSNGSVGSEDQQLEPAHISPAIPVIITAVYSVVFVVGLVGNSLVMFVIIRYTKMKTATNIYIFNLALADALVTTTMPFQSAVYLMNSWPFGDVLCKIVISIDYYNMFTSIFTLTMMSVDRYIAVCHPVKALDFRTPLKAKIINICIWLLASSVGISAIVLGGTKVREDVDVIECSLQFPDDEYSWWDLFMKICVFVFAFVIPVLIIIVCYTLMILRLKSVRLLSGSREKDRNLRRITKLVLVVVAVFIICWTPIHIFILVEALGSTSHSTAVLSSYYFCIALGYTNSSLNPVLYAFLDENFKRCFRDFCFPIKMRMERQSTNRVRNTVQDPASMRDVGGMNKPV", "experiment": "Compound was evaluated for its ability to displace [3H]U-69593 in CHO cells expressing the cloned Opioid receptor kappa 1", "assay_type": "cell-based"}, "Mu-type opioid receptor": {"biological_target": "Mu-type opioid receptor (Rattus norvegicus, UniProt P33535)", "sequence (P33535 whole entry)": "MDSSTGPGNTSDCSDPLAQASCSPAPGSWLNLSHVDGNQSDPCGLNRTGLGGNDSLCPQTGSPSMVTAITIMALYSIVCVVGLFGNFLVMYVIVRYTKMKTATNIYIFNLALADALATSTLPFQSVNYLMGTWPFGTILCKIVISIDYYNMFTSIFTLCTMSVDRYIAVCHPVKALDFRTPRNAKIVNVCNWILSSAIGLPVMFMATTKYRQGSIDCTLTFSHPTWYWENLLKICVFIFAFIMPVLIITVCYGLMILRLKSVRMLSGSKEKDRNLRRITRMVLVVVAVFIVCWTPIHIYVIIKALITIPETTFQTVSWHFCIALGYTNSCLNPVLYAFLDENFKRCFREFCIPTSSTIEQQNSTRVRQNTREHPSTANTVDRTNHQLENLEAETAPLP", "experiment": "Compound was evaluated for its ability to displace [3H]DAMGO in C6 glioma cells expressing the cloned Opioid receptor mu 1", "assay_type": "cell-based"}, "[6]": {"biological_target": "Opioid receptors; mu & delta (Homo sapiens) (UniProt P41143+P35372)", "sequence (P35372 whole entry, looked up)": "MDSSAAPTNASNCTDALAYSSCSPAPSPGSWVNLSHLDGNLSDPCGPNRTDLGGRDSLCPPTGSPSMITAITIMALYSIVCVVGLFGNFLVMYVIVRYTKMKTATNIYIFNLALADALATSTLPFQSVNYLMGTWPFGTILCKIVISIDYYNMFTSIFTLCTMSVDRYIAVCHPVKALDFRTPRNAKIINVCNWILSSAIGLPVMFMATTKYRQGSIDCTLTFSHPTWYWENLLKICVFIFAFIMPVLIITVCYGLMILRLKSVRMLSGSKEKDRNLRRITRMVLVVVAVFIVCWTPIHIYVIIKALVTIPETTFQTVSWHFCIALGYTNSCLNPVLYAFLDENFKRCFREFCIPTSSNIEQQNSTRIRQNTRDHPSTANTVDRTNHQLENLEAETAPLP", "sequence (P41143 whole entry, looked up)": "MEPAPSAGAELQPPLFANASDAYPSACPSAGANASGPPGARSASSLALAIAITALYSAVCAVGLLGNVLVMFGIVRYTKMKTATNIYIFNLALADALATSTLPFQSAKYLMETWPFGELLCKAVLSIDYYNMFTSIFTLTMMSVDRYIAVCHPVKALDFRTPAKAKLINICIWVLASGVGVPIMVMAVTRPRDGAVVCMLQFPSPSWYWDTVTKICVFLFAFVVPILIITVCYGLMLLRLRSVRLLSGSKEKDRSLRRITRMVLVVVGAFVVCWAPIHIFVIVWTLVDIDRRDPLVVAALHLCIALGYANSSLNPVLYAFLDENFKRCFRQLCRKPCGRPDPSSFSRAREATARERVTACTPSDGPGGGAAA", "experiment": "Ratio of binding affinity to mu receptor to that of delta receptor", "assay_type": "protein assay"}, "Mus musculus [7]": {"species": "Mus musculus", "experiment": "Compound was evaluated for antinociceptive activity in mouse; IA means inactive", "assay_type": "functional, organism-based"}, "Mus musculus [8]": {"species": "Mus musculus", "experiment": "Compound was evaluated for antinociceptive activity in mouse using hot plate assay; Inactive", "assay_type": "functional, organism-based"}, "Mus musculus [9]": {"species": "Mus musculus", "experiment": "Compound was evaluated for antinociceptive activity in mouse using paraphenylquinone assay; Inactive", "assay_type": "functional, organism-based"}, "Mus musculus [10]": {"species": "Mus musculus", "experiment": "Compound was evaluated for antinociceptive activity in mouse using tail flick assay; Inactive", "assay_type": "functional, organism-based"}, "Mus musculus [11]": {"species": "Mus musculus", "experiment": "Compound was evaluated for antinociceptive activity in mouse using tail flick vs morphine assay; Inactive", "assay_type": "functional, organism-based"}, "Mus musculus [12]": {"species": "Mus musculus", "experiment": "Compound was evaluated for antinociceptive activity in mouse", "assay_type": "functional"}, "Mus musculus [13]": {"species": "Mus musculus", "experiment": "Compound was evaluated for antinociceptive activity in mouse using tail flick vs morphine assay", "assay_type": "functional"}}, "note": "Active and inactive are the calls of the source. The rule behind the calls is not given here.", "data": [{"smiles": "Oc1ccc2c3c1OC1c4[nH]c5ccccc5c4C[C@@]4(O)[C@@H](C2)N(CCC2CCCCC2)CCC314", "note": "(some centres undefined)", "values": [{"measurement": "Activity", "setting": "Mus musculus [1]", "value": 2.42, "unit": "mg/kg"}, {"measurement": "Activity", "setting": "Mus musculus [2]", "value": 0.39, "unit": "mg/kg"}, {"measurement": "Activity", "setting": "Mus musculus [3]", "value": 3.86, "unit": "mg/kg"}, {"measurement": "Ki", "setting": "[4]", "value": 181, "unit": "nM"}, {"measurement": "Ki", "setting": "[5]", "value": 378, "unit": "nM"}, {"measurement": "Ki", "setting": "Mu-type opioid receptor", "value": 7.3, "unit": "nM"}, {"measurement": "Ratio", "setting": "[6]", "value": 0}]}, {"smiles": "Oc1ccc2c3c1OC1c4[nH]c5ccccc5c4C[C@@]4(O)[C@@H](C2)N(Cc2ccccc2)CCC314", "note": "(some centres undefined)", "values": [{"measurement": "Ki", "setting": "[4]", "value": 115, "unit": "nM"}, {"measurement": "Ki", "setting": "[5]", "value": 134, "unit": "nM"}, {"measurement": "Ki", "setting": "Mu-type opioid receptor", "value": 5330, "unit": "nM"}, {"measurement": "Ratio", "setting": "[6]", "value": 46}]}, {"smiles": "Oc1ccc2c3c1O[C@H]1c4[nH]c5ccccc5c4C[C@@]4(O)[C@@H](C2)N(CC2CC2)CC[C@]314", "note": "[NALTRINDOLE]", "values": [{"measurement": "Activity", "setting": "Mus musculus [7]", "value": "inactive"}, {"measurement": "Ki", "setting": "[4]", "value": 0.04, "unit": "nM"}, {"measurement": "Ki", "setting": "[5]", "value": 5.8, "unit": "nM"}]}, {"smiles": "Oc1ccc2c3c1OC1c4[nH]c5ccccc5c4C[C@@]4(O)[C@@H](C2)N(CC2CCCCC2)CCC314", "note": "(some centres undefined)", "values": [{"measurement": "Activity", "setting": "Mus musculus [8]", "value": "inactive"}, {"measurement": "Activity", "setting": "Mus musculus [9]", "value": "inactive"}, {"measurement": "Activity", "setting": "Mus musculus [10]", "value": "inactive"}, {"measurement": "Activity", "setting": "Mus musculus [11]", "value": "inactive"}, {"measurement": "Ki", "setting": "[4]", "value": 94.5, "unit": "nM"}, {"measurement": "Ki", "setting": "[5]", "value": 1110, "unit": "nM"}, {"measurement": "Ki", "setting": "Mu-type opioid receptor", "value": 1920, "unit": "nM"}, {"measurement": "Ratio", "setting": "[6]", "value": 20}]}, {"smiles": "C=CCN1CC[C@]23c4c5ccc(O)c4O[C@H]2C(=O)CC[C@@]3(O)[C@H]1C5", "note": "[NALOXONE]", "values": [{"measurement": "AD50", "setting": "Mus musculus [12]", "value": 0.1}, {"measurement": "Activity", "setting": "Mus musculus [13]", "value": 0.04, "unit": "mg/kg"}]}, {"smiles": "CN1CC[C@]23c4c5ccc(O)c4O[C@H]2[C@@H](O)C=C[C@H]3[C@H]1C5.CN1CC[C@]23c4c5ccc(O)c4O[C@H]2[C@@H](O)C=C[C@H]3[C@H]1C5.O=S(=O)(O)O", "values": [{"measurement": "Activity", "setting": "Mus musculus [1]", "value": 3.1, "unit": "mg/kg"}, {"measurement": "Activity", "setting": "Mus musculus [2]", "value": 0.4, "unit": "mg/kg"}, {"measurement": "Activity", "setting": "Mus musculus [3]", "value": 0.73, "unit": "mg/kg"}]}, {"smiles": "CCCN(CC1CC1)C1Cc2ccc(O)c3c2C2C(O3)C(NC(=O)/C=C/C(=O)OC)CC[C@]21O", "note": "(some centres undefined)", "values": [{"measurement": "AD50", "setting": "Mus musculus [12]", "value": 1.25, "unit": "ug brain-1"}]}, {"smiles": "Oc1ccc2c3c1O[C@H]1c4[nH]c5c(c4C[C@@]4(O)[C@@H](C2)N(CC2CC2)CC[C@]314)C[C@@]1(O)[C@H]2Cc3ccc(O)c4c3[C@@]1(CCN2CC1CC1)[C@H]5O4", "values": [{"measurement": "Activity", "setting": "Mus musculus [7]", "value": "inactive"}]}]}
